# Assay: Water solubility at 20° C.
# Excerpt: Of special interest are the salts of acrylic and methacrylic acid and also of maleic acid, fumaric acid, and itaconic acid, and more particularly the alkali metal salts, and especially the sodium, potassium, and lithium salts; the alkaline earth metal salts, and especially the magnesium, calcium, strontium, and barium salts; the salts of subgroups I and II of the periodic table, and especially the copper and zinc salts; the salts of main and subgroup IV (Ge, Sn, Pb, Ti, Zr, Hf), and especially the germanium, tin, lead, titanium, and zirconium salts; the salts of subgroup VIII (Fe, Ru, Os, Co, Rh, Ir, Ni, Pd, Pt), and especially the iron, cobalt, and nickel salts; the salts of main and subgroups V ((As, Sb, Bi, V, Nb, Ta) and of subgroup VII (Mn, Tc, Re), and especially the antimony, bismuth, vanadium, and manganese salts; and the ammonium salts, including those derived from ammonium cations of the formula [drawing 1] wherein R1 and R2 are hydrogen or an alkyl group having from 1 to 18 carbon atoms, and preferably from 1 to 5 carbon atoms, and R3 and R4 are hydrogen or an alkyl group having from 1 to 18 carbon atoms, and preferably from 1 to 6 carbon atoms, or wherein R3 and R4, optionally with inclusion of one or two further hetero atoms such as nitrogen, oxygen, or sulfur, form a five- or six-membered heterocyclic system.
row,Compound,Water solubility at 20° C. [g/salt/100 g water]
1,C=C(C)C(=O)[O-].[K+] [Potassium methacrylate],101.8
2,C=C(C)C(=O)O [Barium dimethacrylate],40.5
3,C=C(C)C(=O)[O-].[Na+] [Sodium methacrylate],95.3
4,C=C(C)C(=O)[O-].[Li+] [Lithium methacrylate],87.5
5,C=C(C)C(=O)O [Strontium dimethacrylate],27.5

# Assay: Water solubility of spray dried product (qualitative)
# Assay type: physicochemical
# Excerpt: Clear beads, some of them vitrified, were obtained. The major portion of these ranged in size from 10 to 20 microns; the largest particles were about 80 microns. The residual moisture of the spray dried material ranged from 0.35 to 0.55 percent and the bulk density from 540 to 600 grams/liter. Higher bulk densities can be obtained by increasing the operating temperature. Because of the good water solubility of the products being dried, the spray drying apparatus can be cleaned quite easily.
# Clear beads in the range of 10 to 100 microns are obtained. The residual moisture of the spray dried material is less than 0.3%.
row,Compound,water solubility (in words)
1,C=C(C)C(=O)[O-].[Na+] [Sodium methacrylate],readily water soluble

# From patent publication US4614827A, “Method for isolating vinyl salt compounds from aqueous solutions” (Rohm GmbH, priority 1983, dated 1986)
